{"source": "PubChem BioAssay (NCI)", "test_system": "P388/ADR leukemia", "test": "NCI tumour cell line growth inhibition, 48 h", "note": "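Tested at 5 concentrations; 48 h exposure; 96-well plates; endpoints linearly interpolated, else capped at highest concentration. TGI: concentration producing complete growth inhibition.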", "data": [{"smiles": "CN(C)CCOc1cc2c(c3ccccc13)-c1ccccc1C2=O", "values": [{"measurement": "TGI", "value": 1950, "unit": "nM"}]}]}
